Laboratory results taken from patent US9649279B2, “Fortified micronutrient salt formulations” (Massachusetts Institute of Technology, priority 2013, dated 2017).
Entries after “also recorded” stand apart in the source; their conditions may differ. Values belong to the compound of their own block, whether it stands above or below them.

Columns and labels:
[1] = Vitamin C stability and recovery under cooking conditions; assay type: physicochemical
Protocol: Formulations were tested for factors that increase stability and leakage characteristics for particular nutrients.
Ascorbic acid can become oxidixed and hydrolyzed, resulting in reduced bioactivity. Compounds specifically identified as stabilizing ascorbic acid, trans-Ferulic Acid (FA), Caffeic Acid (CA), and p-Coumaric Acid (p-CA), can be used in the particles and matrix to stabilize vitamin C.
To increase the loading of the ascorbic acid in the formulations, large amounts of ascorbic acid need to be added in the initial formulation process. However, the use of large amount of ascorbic acid can lower the pH of the water during the formulation, and this low pH condition can also dissolve the polymer we use to make the microparticles. To avoid this low pH issue, sodium ascorbate, which has equivalent bioactivity as ascorbic acid, can be used. Over 60 wt % of sodium ascorbate (NaAA) can be recovered after 2 hrs heating at 100° C.

[2] = In vitro release of micronutrients from EPO microspheres; assay type: physicochemical; conditions: for release in SGF / release in SGF after 0.5 hours: SGF at 37° C.; for release in water: water at room temperature and 100° C.
Excerpt: Eight essential micronutrients, presented in Table 3, were encapsulated and their release studied in vitro.
In-house assays were developed for micronutrient detection and determination of encapsulation efficiency and release kinetics.

[3] = enteric coated, three month storage, 25° C./20% RH and 45° C./60% RH; cited from earlier work
[4] = Release of EPO-coated micronutrients in water then SGF (ELISA); assay type: physicochemical; conditions: for release in SGF / release in water: 5% EPO coating; for release in SGF: SGF at 37° C., after one hour; for release in water: water at 25° C. and 100° C., one hour; for stability in the formulations by ELISA: not degraded or denatured
Protocol: To mimic food preparation then ingestion, the samples were submerged in 4 mL water (at 25° C. or 100° C.) for one hour and transferred to 4 mL simulated gastric fluid at 37° C. for two hours.

[5] = Vitamin D3 stability and recovery; assay type: physicochemical
Protocol: Vitamin D3 is not stable under heat. Alteration involves ring-closure that allows generation of pyro- and isopyro-isomers. […] However, it degraded in water at 100° C. after 2 hours. The recovery of vitamin D3 in water at 100° C. is concentration-dependent. When the starting amount of vitamin D3 increased, the recovery after 2 hours cooking also went up, from 2% (15 μg), to 12% (60 μg), to 40% (240 μg), and to 60% (1 mg). The encapsulation of vitamin D3 in EPO matrix helped to stabilize the vitamin D3. The characteristic absorbance peak of vitamin D3 was preserved in D3-EPO after 100° C. in water for 2 hours. […] With HPLC, the recovery of D3 in D3-EPO was quantified to be around 47%.

[6] = Autoclaving of vitamin B12 in EPO-HA microspheres; assay type: physicochemical; conditions: 16 psig and 250° F. for 30 minutes
Protocol: Vitamin B12 was encapsulated in the EPO-HA microspheres and subjected to autoclaving. The autoclaving conditions were 16 psig and 250° F. for 30 minutes. […] Thus, the formulations can survive and prevent the leakage of MNs under autoclaving conditions.

recovered after heating ([1]; 2 hrs heating at 100° C.): Over 60 wt %
Compound: O=C1O[C@H]([C@@H](O)CO)C([O-])=C1O.[Na+] [NaAA, sodium ascorbate]

release in SGF ([2]; EPO-MS): Complete release | release in water ([2]; EPO-MS): limited release
Compound: CCCCCCCCCCCCCCCC(=O)OC/C=C(C)/C=C/C=C(C)/C=C/C1=C(C)CCCC1(C)C [Vitamin A, Retinyl Palimitate]
losses of the micronutrient after storage [3]: 50-99%

Compound: Nc1nc2ncc(CNc3ccc(C(=O)N[C@@H](CCC(=O)O)C(=O)O)cc3)nc2c(=O)[nH]1 [Vitamin B9, folic acid]
release in SGF after 0.5 hours ([2]; EPO-gelatin-microspheres): Complete release | release in 100° C. boiling water ([2]; EPO-gelatin-microspheres, two hours): Slight leakage | release at room temperature ([2]; EPO-gelatin-microspheres, water, room temperature, two hours): Limited release | release in SGF [4]: near complete release | release in SGF ([4]; listed as B9): released all | release in water [4]: negligible release | release in water ([4]; listed as B9): no release | stability in the formulations by ELISA [4]: stable

release in SGF after 0.5 hours ([2]; EPO-MS): Complete release | release in water after two hours ([2]; EPO-MS, room temperature and 100° C. boiling water, two hours): Limited release | release during cooking at 100° C. ([1]; increased concentration of the polymer coating): significantly reduced
Compound: O=C1O[C@H]([C@@H](O)CO)C(O)=C1O [Vitamin C, Ascorbic acid]

Compound: C=C1CC[C@H](O)C/C1=C/C=C1\CCC[C@]2(C)[C@@H]([C@H](C)CCCC(C)C)CC[C@@H]12 [Vitamin D3, cholecalciferol]
release in SGF ([2]; EPO-MS): Fast and complete release | release in water ([2]; EPO-MS): slow and limited release | characteristic absorbance peak (UV spectrum) after heating ([5]; 100° C. in water for 2 hours): totally degraded | stability in acidic condition ([5]; SGF (pH=1.2) at 37° C.): stable | stability in water at 100° C. ([5]; water, 100° C., after 2 hours): degraded | stability in water at room temperature ([5]; water, room temperature): stable

effect of 1% oil during boiling on release ([2]; boiling, two hours, 1% oil added): did not increase release | leakage under autoclaving [6]: No severe leakage | stability in the formulations by ELISA [4]: stable
Compound: Vitamin B12
release in SGF [4]: released all; also recorded: near complete release | release in water [4]: no release; also recorded: negligible release
